The values below come from patent US20230078120A1 (priority 2020, published 2023).

The test system of series [1] is virus-infected cells. As to conditions: cited from earlier work.
Series [2] concerns influenza A virus (IAV) infected cells. The following applies: caspase-mediate apoptosis pathway; cited from earlier work.
For series [3], the system named is HBV. Description: HBV replication in HepG2.2.15 liver cancer cell line. Type of series: cell-based. The text has this: (§1) Similar to the above mentioned IAP inhibitors, Compound 2 of the present invention is a potent IAP inhibitor and can promote apoptosis, and thus could be a potential antiviral compound for coronavirus infection treatment. FIGS. 1A-1C show the effect of Compound 2 on apoptotic induction, IAPs expression, and HBV replication and gene expression in HepG2.2.15 liver cancer cell line.

The test system of series [4] is HBV. As to conditions: mouse model of chronic HBV infection; cited from earlier work.
Series [5] deals with SARS-CoV-2. As to the kind of experiment: microbe, parasite or virus in culture. Type of series: cell-based. As to conditions: for IC50: Severe acute respiratory syndrome coronavirus 2, Vero; for Max Inhibition (%): Vero cells, MOI 0.0125, 24 hpi, at the Max Conc. of each compound (5, 50 or 150 uM).
A short description of series [6]: in vitro. As to conditions: African green monkey.
The target of series [7] is ABL1-nonphosphorylated (Homo sapiens, UniProt P00519). Description: Compound 1 kinase inhibition activity (% Ctrl), ABL1-nonphosphorylated. It is filed as biochemical.
Series [8] concerns cytokines associated with influenza virus induced cytokine storm. As to the kind of experiment: Inhibition of cytokines associated with influenza virus induced cytokine storm, U937 cells, Luminex assay. The following applies: U937 cells infected with influenza virus, MOI 0.1, 24 hours treatment. Type of series: cell-based. As to the method: Following the method described in Front Immunol. 2019 Jun. 21; 1393 and Am. J. Physiol., Lung Cell Mol. Physiol. 315: L52-L58, 2018, U937 cells were infected with influenza virus at a MOI of 0.1 and treated with indicated concentrations of Compound 1 and Compound 2. The supernatant of cells was harvested after 24 hours treatment and the production of indicated cytokines were determined using Luminex assay. The method and results are shown below in FIG. 7 and FIGS. 8A-8C. Survival of influenza virus (IFV) infected mice are shown Table 4 and in FIGS. 9A-9B.

The target in series [9] is BCR-ABL1 kinase (Homo sapiens, UniProt P00519). Description: biochemical.
The target in series [10] is ABL2 (Homo sapiens, UniProt P42684). As to the kind of experiment: Compound 1 kinase inhibition activity (% Ctrl), ABL2. It is filed as biochemical.
Series [11] addresses T1, RIPK1 (Homo sapiens, UniProt Q13546).
T1 sequence (Q13546 1-327 limits assumed): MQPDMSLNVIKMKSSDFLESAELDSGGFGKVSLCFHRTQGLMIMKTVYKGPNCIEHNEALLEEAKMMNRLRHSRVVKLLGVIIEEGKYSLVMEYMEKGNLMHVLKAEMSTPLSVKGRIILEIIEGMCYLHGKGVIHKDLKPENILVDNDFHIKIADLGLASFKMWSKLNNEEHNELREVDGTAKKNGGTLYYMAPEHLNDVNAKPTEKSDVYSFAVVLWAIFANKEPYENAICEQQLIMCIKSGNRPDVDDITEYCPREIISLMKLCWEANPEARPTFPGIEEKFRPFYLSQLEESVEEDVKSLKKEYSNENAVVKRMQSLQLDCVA
As to the kind of experiment: RIPK1 kinase assay (Promega RIPK1 Kinase Enzyme System kit). It is filed as biochemical. As to conditions: cell free assay.

In series [12] the test system is influenza virus. Type of series: in vivo, mice.
Series [13] concerns the target ABL1-phosphorylated (Homo sapiens, UniProt P00519). Description: Compound 1 kinase inhibition activity (% Ctrl), ABL1-phosphorylated. It is filed as biochemical.
Series [14] relates to BCR-ABL1 expressing Ba/F3. As to conditions: read-out: IC50 Cellular Activity (BCR-ABL1 expressing Ba/F3).
For series [15], the system named is IAPs. As to the kind of experiment: IAPs expression in HepG2.2.15 liver cancer cell line. It is filed as cell-based.
Description: as §1

In series [16] the test system is HBV. As to the kind of experiment: Virus clearance in pAAV-HBV 1.3 model. Type of series: in vivo. As to conditions: injection, C57BL/6J mice.
Series [17] relates to HepG2.2.15 liver cancer cell line. Description: Apoptotic induction in HepG2.2.15 liver cancer cell line. It is filed as cell-based. As to conditions: combination with TNF-α.
Description: as §1

Series [18] deals with HBV. As to the kind of experiment: HBV models in mice: hepatocyte apoptosis and liver immune readouts. It is filed as in vivo.
Series [19] has as its system Vero E6 cells. The following applies: cited from earlier work.
In series [20] the test system is SARS-CoV. The following applies: Vero E6 cells; cited from earlier work.
Series [21] has as its system MERS-CoV. As to conditions: Vero E6 cells; cited from earlier work.
Series [22] relates to SARS-CoV. As to conditions: Vero E6 and Calu-3 cells; cited from earlier work.
Series [23] deals with MERS-CoV. The following applies: Vero E6 and MRC5 cells; cited from earlier work.
The subject of series [24] is IL-8, IP-10, MCP-1. As to conditions: cytokines associated with influenza-induced cytokine storm; cited from earlier work.

Where “and” joins values, the source holds several entries; their conditions need not be identical. Identical values can stand only once. Like-named read-outs stand apart in the source and are kept apart here.

Sequence of ABL1-nonphosphorylated (P00519 whole entry): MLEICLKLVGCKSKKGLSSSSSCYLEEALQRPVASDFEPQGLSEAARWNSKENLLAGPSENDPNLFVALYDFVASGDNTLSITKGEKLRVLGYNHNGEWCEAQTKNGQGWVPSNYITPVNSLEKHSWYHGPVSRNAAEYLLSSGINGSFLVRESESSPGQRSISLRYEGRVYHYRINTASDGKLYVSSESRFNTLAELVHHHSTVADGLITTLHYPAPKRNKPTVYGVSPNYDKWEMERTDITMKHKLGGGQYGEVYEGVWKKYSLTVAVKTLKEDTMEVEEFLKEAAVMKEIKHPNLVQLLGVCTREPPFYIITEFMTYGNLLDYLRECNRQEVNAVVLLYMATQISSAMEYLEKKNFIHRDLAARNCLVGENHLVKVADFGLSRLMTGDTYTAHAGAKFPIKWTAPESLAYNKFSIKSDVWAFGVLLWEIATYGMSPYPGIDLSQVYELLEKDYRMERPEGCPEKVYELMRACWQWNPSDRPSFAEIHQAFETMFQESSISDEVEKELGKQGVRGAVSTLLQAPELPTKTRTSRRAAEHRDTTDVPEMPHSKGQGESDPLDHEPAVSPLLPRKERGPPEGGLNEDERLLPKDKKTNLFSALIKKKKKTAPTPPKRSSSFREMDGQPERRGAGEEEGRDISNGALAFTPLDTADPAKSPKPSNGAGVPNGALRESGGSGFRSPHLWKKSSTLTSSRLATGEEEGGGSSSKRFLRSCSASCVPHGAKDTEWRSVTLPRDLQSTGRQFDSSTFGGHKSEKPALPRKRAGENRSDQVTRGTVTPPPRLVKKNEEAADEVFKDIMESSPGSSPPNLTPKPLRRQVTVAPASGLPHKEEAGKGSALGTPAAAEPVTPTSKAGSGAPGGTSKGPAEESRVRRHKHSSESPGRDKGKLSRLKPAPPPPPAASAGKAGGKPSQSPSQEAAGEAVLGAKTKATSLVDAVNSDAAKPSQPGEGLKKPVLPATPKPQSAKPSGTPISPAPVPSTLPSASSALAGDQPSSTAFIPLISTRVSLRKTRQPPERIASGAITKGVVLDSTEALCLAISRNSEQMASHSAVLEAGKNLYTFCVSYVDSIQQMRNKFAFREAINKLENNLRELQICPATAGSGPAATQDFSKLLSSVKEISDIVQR
Sequence of ABL1-phosphorylated (P00519 whole entry): as above
Sequence of ABL2 (P42684 whole entry, species assumed): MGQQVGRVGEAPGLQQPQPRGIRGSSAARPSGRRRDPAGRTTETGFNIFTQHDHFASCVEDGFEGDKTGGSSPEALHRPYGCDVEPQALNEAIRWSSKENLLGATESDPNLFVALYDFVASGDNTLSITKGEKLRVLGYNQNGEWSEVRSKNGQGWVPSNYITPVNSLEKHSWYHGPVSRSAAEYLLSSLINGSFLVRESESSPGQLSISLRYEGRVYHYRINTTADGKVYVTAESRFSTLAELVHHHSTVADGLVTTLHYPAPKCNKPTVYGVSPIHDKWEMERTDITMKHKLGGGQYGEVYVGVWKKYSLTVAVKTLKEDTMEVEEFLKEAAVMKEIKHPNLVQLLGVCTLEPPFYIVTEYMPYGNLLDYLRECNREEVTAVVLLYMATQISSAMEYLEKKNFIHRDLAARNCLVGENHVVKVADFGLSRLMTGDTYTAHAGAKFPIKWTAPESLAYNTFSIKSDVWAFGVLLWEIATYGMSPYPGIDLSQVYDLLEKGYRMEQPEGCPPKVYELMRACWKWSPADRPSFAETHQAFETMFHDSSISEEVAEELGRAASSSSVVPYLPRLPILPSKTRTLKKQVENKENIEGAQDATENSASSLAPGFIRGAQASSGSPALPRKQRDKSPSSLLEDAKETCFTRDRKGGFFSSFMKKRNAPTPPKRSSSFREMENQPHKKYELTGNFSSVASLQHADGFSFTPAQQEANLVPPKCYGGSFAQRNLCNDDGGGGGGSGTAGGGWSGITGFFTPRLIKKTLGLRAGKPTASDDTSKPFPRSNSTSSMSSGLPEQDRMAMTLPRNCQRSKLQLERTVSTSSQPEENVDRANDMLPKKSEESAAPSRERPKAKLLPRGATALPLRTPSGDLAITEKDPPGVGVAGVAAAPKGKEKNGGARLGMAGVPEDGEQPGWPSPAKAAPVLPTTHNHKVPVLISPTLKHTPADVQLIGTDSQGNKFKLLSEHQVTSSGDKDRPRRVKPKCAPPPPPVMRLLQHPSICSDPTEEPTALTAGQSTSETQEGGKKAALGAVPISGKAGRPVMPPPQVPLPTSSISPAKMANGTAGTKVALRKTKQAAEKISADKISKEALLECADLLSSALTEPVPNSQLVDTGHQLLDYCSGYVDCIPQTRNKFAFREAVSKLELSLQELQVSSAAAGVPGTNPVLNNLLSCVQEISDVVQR
Sequence of BCR-ABL1 kinase (P00519 27-1130): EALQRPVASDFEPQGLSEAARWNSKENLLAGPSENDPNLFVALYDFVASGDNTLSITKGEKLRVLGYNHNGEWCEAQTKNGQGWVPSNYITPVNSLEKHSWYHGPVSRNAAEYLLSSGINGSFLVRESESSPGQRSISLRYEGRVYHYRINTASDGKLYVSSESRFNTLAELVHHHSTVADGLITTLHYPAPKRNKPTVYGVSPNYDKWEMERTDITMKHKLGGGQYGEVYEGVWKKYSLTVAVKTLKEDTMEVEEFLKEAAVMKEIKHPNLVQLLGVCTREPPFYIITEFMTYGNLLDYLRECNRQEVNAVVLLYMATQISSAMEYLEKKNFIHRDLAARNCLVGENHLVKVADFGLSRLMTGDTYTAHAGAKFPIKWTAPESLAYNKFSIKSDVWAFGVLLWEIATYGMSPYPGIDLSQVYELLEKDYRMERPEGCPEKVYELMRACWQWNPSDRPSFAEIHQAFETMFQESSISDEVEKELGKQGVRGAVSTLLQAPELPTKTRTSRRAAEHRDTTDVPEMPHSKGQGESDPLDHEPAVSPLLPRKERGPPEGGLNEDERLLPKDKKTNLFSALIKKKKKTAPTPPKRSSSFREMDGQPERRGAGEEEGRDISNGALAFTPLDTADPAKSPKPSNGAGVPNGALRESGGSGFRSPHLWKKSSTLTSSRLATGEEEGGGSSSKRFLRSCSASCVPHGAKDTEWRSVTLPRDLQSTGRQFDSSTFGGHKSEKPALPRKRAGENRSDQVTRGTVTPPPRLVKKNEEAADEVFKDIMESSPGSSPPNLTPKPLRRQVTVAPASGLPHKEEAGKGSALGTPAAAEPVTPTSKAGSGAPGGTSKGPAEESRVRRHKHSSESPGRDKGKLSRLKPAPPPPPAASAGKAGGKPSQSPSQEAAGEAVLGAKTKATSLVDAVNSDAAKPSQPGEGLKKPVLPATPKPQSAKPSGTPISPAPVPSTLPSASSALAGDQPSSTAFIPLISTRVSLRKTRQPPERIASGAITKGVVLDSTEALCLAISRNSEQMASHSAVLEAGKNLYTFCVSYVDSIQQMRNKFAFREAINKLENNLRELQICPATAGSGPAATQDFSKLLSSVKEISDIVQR

As for `CC1(C)CCC(c2ccc(Cl)cc2)=C(CN2CCN(c3ccc(C(=O)NS(=O)(=O)c4ccc(N[C@H](CCN5CCOCC5)CSc5ccccc5)c(S(=O)(=O)C(F)(F)F)c4)cc3)CC2)C1` [ABT-236], the “apoptosis in virus-infected cells” value in series [1] is “accelerate apoptosis in virus-infected cells”.

For `CC1(C)CCC(c2ccc(Cl)cc2)=C(CN2CCN(c3ccc(C(=O)NS(=O)(=O)c4ccc(N[C@H](CCN5CCOCC5)CSc5ccccc5)c(S(=O)(=O)C(F)(F)F)c4)cc3)CC2)C1` [ABT-263], in series [2], the “apoptosis in virus-infected cells” value is “accelerates apoptosis in virus-infected cells”.

Turning to `CN(C)CC[C@H](CSc1ccccc1)Nc1ccc(S(=O)(=O)NC(=O)c2ccc(N3CCN(Cc4ccccc4-c4ccc(Cl)cc4)CC3)cc2)cc1[N+](=O)[O-]` [ABT-737], in series [1], the “apoptosis in virus-infected cells” value was “accelerate apoptosis in virus-infected cells”.

Consider `CC[C@H](NC(=O)[C@H](C)NC)C(=O)N1C[C@@H](O)C[C@H]1Cc1c(-c2[nH]c3cc(F)ccc3c2C[C@@H]2C[C@H](O)CN2C(=O)[C@H](CC)NC(=O)[C@H](C)NC)[nH]c2cc(F)ccc12` [Birinapant], for which the virus replication entry in series [3] (high concentrations) is reported as “impair enhancement of virus replication”. Besides, in series [3] (low concentrations), the virus replication result is listed as “increased virus replication”. In [4], the “elimination of hepatocytes containing HBV core antigen” value is listed as “promote the elimination”, the “serum HBV DNA” value is listed as “rapidly reduce” and the “serum HBV surface antigen” value is on record as “rapidly reduce”.

As to `CCN(CC)CCCC(C)Nc1ccnc2cc(Cl)ccc12` (stereo not drawn) [Chloroquine], in series [5], the IC50 worked out at 13 µM and the “Max Inhibition (%)” value is on record as 100.01%. Further, in series [6], the CC50 was > 150 µM.

As for `Cc1ccc(C(=O)Nc2ccc(CN3CCN(C)CC3)c(C(F)(F)F)c2)cc1C#Cc1cnc2[nH]ncc2c1` [Compound 1, 3-(2-(1H-pyrazolo[3,4-b]pyridin-5-yl)ethynyl)-4-methyl-N-(4-((4-methylpiperazin-1-yl)methyl)-3-(trifluoromethyl)phenyl)-benzamide], the remaining activity at 0.01 µM was 4.4% in series [7] (read-out: % Ctrl @ 10 nM), 2.6% in series [10] (10 nM) and 3% in [13] (read-out: % Ctrl @ 10 nM). For the same molecule, the remaining activity at 0.1 µM in series [7] (read-out: % Ctrl @ 100 nM) was 0.1%; in [10] (100 nM) it was 0%; in [13] (read-out: % Ctrl @ 100 nM), 0%. Also, the remaining activity at 1 µM in series [7] (read-out: % Ctrl @ 1000 nM), in series [10] (1000 nM) and in series [13] (read-out: % Ctrl @ 1000 nM) was 0% in each case. In [8], the “production of cytokines associated with influenza induced cytokine storm” value is reported as “inhibits the production of cytokines associated with influenza induced cytokine storm”. Moreover, the IC50 in [5] turned out to be 1.32 µM; in series [9] it was 0.0003 ± 4.5e-06 µM; in [11], 0.054 µM; in [14], 0.006 ± 0.003 µM. Further, in [5] (result in words), the “SARS-CoV-2 infection in Vero cell” value is given as “inhibits SARS-CoV-2 infection in Vero cell”. Further, the CC50 in series [6] was > 5 µM. Also, the “survival of influenza virus infected mice” value in series [12] (at the amounts of 5 mg/kg or 10 mg/kg) is reported as “improves the survival of influenza virus infected mice”. The “Day 21 Survival number” value in series [12] (mouse, in vivo) is 1 and 2. The “Survival rate (%)” value in [12] (mouse, in vivo) was 11.11% and 22.22%.

Regarding `CN[C@@H](C)C(=O)N[C@H]1CN(S(=O)(=O)c2cccc(S(=O)(=O)N3CC[C@H]4CC[C@@H](C(=O)NC(c5ccccc5)c5ccccc5)N4C(=O)[C@@H](NC(=O)[C@H](C)NC)C3)c2)CC[C@H]2CC[C@@H](C(=O)NC(c3ccccc3)c3ccccc3)N2C1=O` [Compound 2, (5S,5′S,8S,8′S,10aR,10a′R)-3,3′-(1,3-phenylenedisulfonyl)bis(N-benzhydryl-5-((S)-2-(methylamino)propanamido)-6-oxodecahydropyrrolo[1,2-a][1,5]diazocine-8-carboxamide)], in series [15], the “expression of IAPs” value is reported as “inhibits the expression of IAPs in a dose-dependent manner”. Besides, the “production of cytokines associated with influenza induced cytokine storm” value in [8] was “inhibits the production of cytokines associated with influenza induced cytokine storm”. Besides, in series [3] (high concentrations), the virus replication entry is “impair enhancement of virus replication”. Further, the virus replication result in [3] (low concentrations) is “increased virus replication”. In series [5], the IC50 is > 50 µM and the “Max Inhibition (%)” value amounted to 25.93%. Moreover, the CC50 in series [6] is > 50 µM. In addition, the virus clearance result in [16] is “promotes virus clearance”. Also, the apoptosis pathway activation result in series [17] was “significantly activate apoptosis pathway”. For the same molecule, the “apoptosis in the HBV-infected (HBsAg+) hepatocytes” value in series [18] (HBV models in mice) is given as “specifically induced apoptosis”. Moreover, in [18] (liver tissue of HBV models), the “expression of IFN-γ and TNF-α” value is “promotes the expression of IFN-γ and TNF-α”; the “number of CD4+ and CD8+ T cells” value is “promotes”.

Take `Cc1nc(Nc2ncc(C(=O)Nc3c(C)cccc3Cl)s2)cc(N2CCN(CCO)CC2)n1` [Dasatinib]: in series [19], the cytotoxicity result was “low cytotoxicity”.

`Cc1ccc(NC(=O)c2ccc(CN3CCN(C)CC3)cc2)cc1Nc1nccc(-c2cccnc2)n1` [Imatinib]: in series [20], the “inhibition of SARS-CoV” value is given as “inhibit”. Besides, in series [21], the “inhibition of MERS-CoV” value is “inhibit”. For the same molecule, the “virus production of SARS-CoV” value in series [22] is reported as “showed inhibition”. The cytotoxicity entry in series [19] is recorded as “low cytotoxicity”. In series [23], the “virus production of MERS-CoV” value is on record as “showed inhibition”.

Consider `Cc1cccc(C)c1OCC(=O)N[C@@H](Cc1ccccc1)[C@@H](O)C[C@H](Cc1ccccc1)NC(=O)[C@H](C(C)C)N1CCCNC1=O` [Lopinavir], for which, in series [5], the IC50 was 17.3 µM and the “Max Inhibition (%)” value amounted to 99.93%. Also, the CC50 in series [6] was > 50 µM.

Consider `Cc1cn(-c2cc(NC(=O)c3ccc(C)c(Nc4nccc(-c5cccnc5)n4)c3)cc(C(F)(F)F)c2)cn1` [Nilotinib, reference compound], for which the IC50 in series [14] is 0.01 ± 0.003 µM. The “production of IL-8, IP-10 and MCP-1” value in series [24] is given as “inhibit the production”.

For the molecule `CCOC(=O)C1=C[C@@H](OC(CC)CC)[C@H](NC(C)=O)[C@@H](N)C1` [Oseltamivir], the “Survival rate (%)” value in [12] (10 mpk, QD, 2 hr prior to infection, day 21) came out at 100%. In addition, the “Day 21 Survival number” value in series [12] (10 mpk, QD, 2 hr prior to infection, of 9 animals) was 9.

As for `Cc1ccc(C(=O)Nc2ccc(CN3CCN(C)CC3)c(C(F)(F)F)c2)cc1C#Cc1cnc2cccnn12` [Ponatinib], in [12] (mouse, in vivo), the “Day 21 Survival number” value is 2 and 1; the “Survival rate (%)” value is 22.22% and 11.11%.

As for `CCC(CC)COC(=O)[C@H](C)N[P@](=O)(OC[C@H]1O[C@@](C#N)(c2ccc3c(N)ncnn23)[C@H](O)[C@@H]1O)Oc1ccccc1` [Remdesivir], in [5], the IC50 was 12.4 µM and the “Max Inhibition (%)” value is recorded as 95.01%. Besides, in [6], the CC50 was > 50 µM.
